In this experiment the target is T1, E. coli RelA (Escherichia coli, UniProt P0AG20).
T1 construct: made in house
Briefly: Inhibition of [3H]GDP to [3H]ppGpp conversion by E. coli RelA activated by vacant 70S ribosomes and 100 μM ppGpp. Format: biochemical. The conditions noted are these: for IC50: 30 nM RelA, 0.5 μM vacant 70S, 100 μM ppGpp; for nHill (Hill coefficient of the titration fit): Supplementary Table 1, 4-parameter logistic model; for Activation of RelA's synthetic activity (in words): ppGpp up to 100 μM, ppApp 50 µM-1 mM, thio-ppGpp 100 µM (Supplementary Figure 1); for Activity against RelA (in words) / Inhibitory effect on RelA (in words): RelA:70S:ppGpp system; for Inhibitory effect on RelA (in words): concentrations up to 1 mM. Here is the method: For the initial characterization of compounds, we followed the inhibition of [^3H] GDP conversion to [^3H] ppGpp catalyzed by E. coli RelA in a simplified system in which RelA’s activity was induced by vacant 70S ribosomes and 100 μM of ppGpp[15]. Unlabeled ppGpp was added to reaction mixtures in order to linearize the kinetics of [^3H] ppGpp synthesis due to an activating effect on the RelA enzyme. We used a targeted library of 69 nucleotides belonging to several structural classes: ‘true’ ppGpp analogues; Relacin and its derivatives; pyrrolidine, azetidine, piperidine and acyclic phosphonates. Chemical structures of tested compounds and titrations in the RelA:70S:ppGpp system are presented in Supplementary Table 1.
Detailed description of experimental procedures can be found in Supplementary Text. Biochemical assays utilize in vitro translation[58] and stringent response[15] systems from E. coli purified components. Experiments were performed in HEPES:Polymix[58] buffer with either 5 (for enzymatically assembled initiation complexes) or 15 mM (for vacant 70 S, as well as non-enzymatically assembled programmed ribosomes) Mg^2+. Expression and purification of E. faecalis RelQ was performed as per Gaca (2015) and colleagues. GTPase and ppGpp synthesis were followed using TLC separation and radiochemical detection of ^3H-labelled nucleotides. Multiple round in vitro transcription assays were performed as per Bernardo et al.[49] with minor modifications. Inhibition efficiency (IC50) was calculated using 4-parameter logistic model (Hill equation) as per Sebaugh[60].
Thin layer chromatography (TLC) analysis of nucleotide mixtures
Both EF-G GTPase reaction and ppGpp synthesis by RelA were followed by TLC analysis followed by scintillation counting according to Mechold and colleagues, with modifications1. Time points from the reaction mixtures (5 μl, see below for details) were quenched by addition 4 μl 70% formic acid supplemented with a cold nucleotide standard used for UV-shadowing (10 mM GDP and 10 mM GTP) and spotted on PEI-TLC plates (Macherey-Nagel). TLC was run in buffer, plates dried, cut into sections guided by UV-shadowing and 3H radioactivity was quantified by scintillation counting in Optisafe-3 (Fisher) scintillation cocktail on Perkin Elmer Tricarb 2810TR counter. Conversion of substrate to product was quantified as described in Shyp et al. (2012)2.
Enzymatic assays with E. coli RelA
Screening: all experiments were performed in HEPES:Polymix, Mg2+ of 5 mM, 37 […]
μM ppGpp was pre-incubated at 37° C for 2 min and then reaction started by addition of 1 mM ATP, time points (5 μl) taken, quenched with formic acid and analyzed by TLC. Inhibition efficiency (IC50) was calculated using 4-parameter logistic model (Hill equation) as per Sebaugh (2011)3. […]

The mark [1] stands for this setting: 0.3 mM [3H]GDP, 1 mM ATP, read-out: IC50.
Where [2] appears, read: 5 mM Mg2+, 37 °C, no unit beside the value, titration axis in mM, read-out: IC50 (Supplementary Table 1, example titration).

Molecules are shown by their SMILES. Like-named read-outs stand apart in the source and are kept apart here.

T1 sequence (P0AG20 whole entry): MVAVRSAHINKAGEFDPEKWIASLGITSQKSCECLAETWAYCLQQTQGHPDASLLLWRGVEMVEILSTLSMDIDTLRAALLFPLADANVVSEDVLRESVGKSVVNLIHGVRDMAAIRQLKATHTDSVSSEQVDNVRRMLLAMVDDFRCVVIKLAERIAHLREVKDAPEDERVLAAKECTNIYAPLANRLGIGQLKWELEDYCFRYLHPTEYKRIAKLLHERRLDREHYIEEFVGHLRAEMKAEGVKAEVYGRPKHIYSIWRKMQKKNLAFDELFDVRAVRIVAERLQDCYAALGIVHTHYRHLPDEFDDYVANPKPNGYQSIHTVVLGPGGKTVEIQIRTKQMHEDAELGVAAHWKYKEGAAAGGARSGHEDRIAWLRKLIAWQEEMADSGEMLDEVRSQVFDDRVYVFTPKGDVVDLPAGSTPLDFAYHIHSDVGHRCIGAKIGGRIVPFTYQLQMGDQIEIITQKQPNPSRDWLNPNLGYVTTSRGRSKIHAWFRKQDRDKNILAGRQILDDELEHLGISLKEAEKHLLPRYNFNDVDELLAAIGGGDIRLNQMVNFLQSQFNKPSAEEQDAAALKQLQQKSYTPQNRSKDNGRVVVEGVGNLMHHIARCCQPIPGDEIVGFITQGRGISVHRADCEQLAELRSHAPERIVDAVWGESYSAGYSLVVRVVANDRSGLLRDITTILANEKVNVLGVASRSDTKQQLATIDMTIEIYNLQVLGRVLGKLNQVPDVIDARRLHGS

Take `Nc1nc2c(ncn2C2OC(COP(=O)(O)OP(=O)(O)O)C(OP(=O)(O)OP(=O)(O)O)C2O)c(=S)[nH]1` (stereo not shown) [6-thio-ppGpp, reference compound]: the “nHill (Hill coefficient of the titration fit)” value (“nHill” for short) is recorded as 1.86 ± 0.29 and the “Activation of RelA's synthetic activity (in words)” value is given as “neither ppApp nor 6-thio-ppGpp activate”. Further, under setting [1], the IC50 turned out to be 21.3 ± 2.1 µM. For the same compound, the IC50 (5 mM Mg2+, 37 °C, no unit beside the value, titration axis in µM, read-out: IC50 (Supplementary Table 1, example titration)) came to 21.2 ± 2.08 µM. Also, where the note is “listed as thio-ppGpp”, the “Activation of RelA's synthetic activity (in words)” value is reported as “do not activate”.

`CC(C)C(=O)Nc1nc2c(ncn2[C@@H]2O[C@H](COP(=O)(O)OCP(=O)(O)O)[C@@H](OP(=O)(O)OCP(=O)(O)O)[C@H]2OC2CCCCO2)c(=O)[nH]1` (stereo partly shown) [DR-4238, 2-N-isobutyryl-2’-tetrahydropyranylguanosine 3’,5’-di(phosphonomethoxyphosphate)]: the “nHill” value was found to be 1.85 ± 0.2. Under setting [2], the IC50 was found to be 100 ± 6 µM.

For the compound `CC(C)C(=O)Nc1nc2c(ncn2C2OC(COP(=O)(O)OCP(=O)(O)O)C(OP(=O)(O)OCP(=O)(O)O)C2O)c(=O)[nH]1` (stereo not shown) [DR-4239, 2-N-isobutyryl-guanosine 3’,5’-di(phosphonomethoxyphosphate)], the “nHill” value worked out at 2.13 ± 0.3. Further, under setting [1], the IC50 was 101 ± 8 µM. The IC50 under setting [2] was determined as 102 ± 8 µM.

As for `CC(C)OP(=O)(O)CN1CC[C@H](n2cnc3c(=O)[nH]c(N)nc32)C1` [DR-4518], under setting [1], the IC50 was 1710 ± 660 µM.

`Nc1nc2c(ncn2[C@H]2CCN(C(=O)P(=O)(O)O)C2)c(=O)[nH]1` [DR-4520]: the “nHill” value is on record as 1.46 ± 0.2. Besides, under setting [1], the IC50 came out at 200 ± 22 µM.

Regarding `Nc1nc2c(ncn2CCNCC(=O)P(=O)(O)O)c(=O)[nH]1` [DR-5164], the IC50 under setting [1] worked out at 1400 ± 120 µM.

As to `Nc1nc2c(ncn2[C@@H]2CCN(C(=O)P(=O)(O)O)C2)c(=O)[nH]1` [DR-5267B], the “nHill” value was found to be 0.95 ± 0.26. In addition, the IC50 under setting [1] came out at 652 ± 194 µM.

For the compound `Nc1nc2c(ncn2C2CC(OC(=O)NCC(=O)NCC(=O)O)C(COC(=O)NCC(=O)NCC(=O)O)O2)c(=S)[nH]1` (stereo not shown) [DR-5732], the “Activity against RelA (in words)” value is reported as “virtually no activity”. For the same compound, the “Activity against RelA (in words)” value (listed as thio-di-iBu-Relacin) is recorded as “complete inactivation”.

Take `Nc1nc2c(ncn2C2CC(OCP(=O)(O)O)C(COCP(=O)(O)O)O2)c(=O)[nH]1` (stereo not shown) [DR-5799C]: the “nHill” value is 2.2 ± 2.5. The IC50 under setting [1] is 515 ± 392 µM.

Regarding `Nc1ncnc2c1ncn2C1CCN(C(=O)P(=O)(O)O)CC1` [DR-5994A], the “nHill” value worked out at 1 ± 0.088. Moreover, the IC50 under setting [2] amounted to 300 ± 30 µM.

Regarding `Nc1nc2c(ncn2C2OC(COCP(=O)(O)O)C(OCP(=O)(O)O)C2O)c(=O)[nH]1` (stereo not shown) [DR-6331], the “nHill” value came out at 1.5 ± 0.2. Also, under setting [1], the IC50 is 76 ± 6 µM.

As to `Nc1nc2c(ncn2C2CCN(C(=O)CP(=O)(O)O)CC2)c(=O)[nH]1` [DR-M011], the “nHill” value is 0.62 ± 0.13. Moreover, the IC50 under setting [1] came out at 234 ± 67 µM. Further, the IC50 under setting [2] was 230 ± 70 µM.

`NC(=O)C1=CN([C@@H]2O[C@H](COP(=O)(O)OP(=O)(O)OC[C@H]3O[C@@H](n4cnc5c(N)ncnc54)[C@H](O)[C@@H]3O)[C@@H](O)[C@H]2O)C=CC1` [NADH, reference compound]: the “Inhibitory effect on RelA (in words)” value is reported as “None of the compounds showed any inhibitory effect”.

Regarding `NC(=O)C1=CN([C@@H]2O[C@H](COP(=O)(O)OP(=O)(O)OC[C@H]3O[C@@H](n4cnc5c(N)ncnc54)[C@H](OP(=O)(O)O)[C@@H]3O)[C@@H](O)[C@H]2O)C=CC1` [NADPH, reference compound], the “Inhibitory effect on RelA (in words)” value was “None of the compounds showed any inhibitory effect”.

Take `Nc1ncnc2c1ncn2[C@@H]1O[C@@H]2COP(=O)(O)O[C@H]3[C@@H](O)[C@H](n4cnc5c(N)ncnc54)O[C@@H]3COP(=O)(O)O[C@H]2[C@H]1O` [c-di-AMP, reference compound]: the “Inhibitory effect on RelA (in words)” value was “None of the compounds showed any inhibitory effect”.

As to `Nc1nc2c(ncn2[C@@H]2O[C@@H]3COP(=O)(O)O[C@H]4[C@@H](O)[C@H](n5cnc6c(N)ncnc65)O[C@@H]4COP(=O)(O)O[C@H]3[C@H]2O)c(=O)[nH]1` [c-di-GAMP, reference compound], the “Inhibitory effect on RelA (in words)” value is “None of the compounds showed any inhibitory effect”.

With `Nc1nc2c(ncn2[C@@H]2O[C@@H]3COP(=O)(O)O[C@H]4[C@@H](O)[C@H](n5cnc6c(=O)[nH]c(N)nc65)O[C@@H]4COP(=O)(O)O[C@H]3[C@H]2O)c(=O)[nH]1` [c-di-GMP, reference compound], the “Inhibitory effect on RelA (in words)” value was “None of the compounds showed any inhibitory effect”.

Regarding `Nc1nc2c(ncn2C2CC(OC(=O)NCC(=O)NCC(=O)O)C(COC(=O)NCC(=O)NCC(=O)O)O2)c(=O)[nH]1` (stereo not shown) [di-iBu-Relacin], the “Activity against RelA (in words)” value was “compromises its activity against RelA”.

Regarding `Nc1nc2c(ncn2C2OC(COP(=O)(O)OP(=O)(O)O)C(OP(=O)(O)OP(=O)(O)O)C2O)c(=O)[nH]1` (stereo not shown) [ppGpp, guanosine tetraphosphate], the IC50 under setting [1] came to 720 ± 440 µM.

(Values after article PMC5291098, “Molecular mutagenesis of ppGpp: turning a RelA activator into an inhibitor” (Scientific Reports, 2017).)
